Legend:
[1] = Cytostatic effect on Huh-5-2 cells (MTS method, parallel cultures); assay type: cell-based; settings: human, read-out: CC50 (concentration required to inhibit the proliferation of exponentially growing Huh-5-2 cells by 50%)
Protocol: (§1) Huh-5-2 cells [a cell line with a persistent HCV replicon I3891uc-ubi-neo/NS3-3′/5.1; replicon with firefly luciferase-ubiquitin-neomycin phosphotransferase fusion protein and EMCV-IRES driven NS3-5B HCV polyprotein] was cultured in RPMI medium (Gibco) supplemented with 10% fetal calf serum, 2 mM L-glutamine (Life Technologies), 1× non-essential amino acids (Life Technologies); 100 IU/ml penicillin and 100 ug/ml streptomycin and 250 ug/ml G418 (Geneticin, Life Technologies). Cells were seeded at a densitiy of 7000 cells per well in 96 well View Plate™ (Packard) in medium containing the same components as described above, except for G418. Cells were allowed to adhere and proliferate for 24 hr. At that time, culture medium was removed and serial dilutions of the test compounds were added in culture medium lacking G418. Interferon alfa 2a (500 IU) was included as a positive control. Plates were further incubated at 37° C. and 5% CO2 for 72 hours. Replication of the HCV replicon in Huh-5 cells results in luciferase activity in the cells. Luciferase activity is measured by adding 50 μl of 1× Glo-lysis buffer (Promega) for 15 minutes followed by 50 ul of the Steady-Glo Luciferase assay reagent (Promega). Luciferase activity is measured with a luminometer and the signal in each individual well is expressed as a percentage of the untreated cultures. Parallel cultures of Huh-5-2 cells, seeded at a density of 7000 cells/well of classical 96-well cell culture plates (Becton-Dickinson) are treated in a similar fashion except that no Glo-lysis buffer or Steady-Glo Luciferase reagent is added. Instead the density of the culture is measured by means of the MTS method (Promega).

HCV Subgenomic Replicon = assay: HCV-Huh-5-2 replicon cell assay (luciferase); assay type: cell-based, Hepatitis C virus; settings: for EC50: Hepatitis C virus, HCV subgenomic replicon in Huh-5-2 cells, 72 hours, luciferase, read-out: EC50 (concentration required to inhibit luciferase activity in the replicon system by 50%); for SI (selectivity index, ratio of CC50 to EC50): Huh-5-2 cells
Protocol: as §1

| SMILES | CC50 at 72 h [1] [µM] | EC50 (HCV Subgenomic Replicon) [µM] | SI (selectivity index, ratio of CC50 to EC50) (HCV Subgenomic Replicon) |
| --- | --- | --- | --- |
| CC(=O)OCC1OC(n2c(SCc3cc4cc(Br)ccc4oc3=O)nc3ccccc32)CC(OC(C)=O)C1OC(C)=O (stereo not drawn) [Compound 22c, Acetic acid 3,4-diacetoxy-6-[2-(6-bromo-2-oxo-2H-chromen-3-ylmethylsulfanyl)-benzoimidazol-1-yl]-tetrahydro-pyran-2-ylmethyl ester] | 16.1 | 4.08 | 3.95 |
| CC(=O)OCC1OC(n2c(SCc3cc4ccccc4oc3=O)nc3cc(C)ccc32)C(OC(C)=O)C(OC(C)=O)C1OC(C)=O (stereo not drawn) [Compound 7b, Acetic acid 3,5-diacetoxy-2-acetoxymethyl-6-[5-methyl-2-(2-oxo-2H-chromen-3-ylmethylsulfanyl)-benzoimidazol-1-yl]-tetrahydro-pyran-4-yl ester] | 44.8 | 8.28 | 5.42 |
| O=c1oc2ccc(Br)cc2cc1CSc1nc2ccccc2o1 [Compound 19c, 3-(Benzooxazol-2-ylsulfanylmethyl)-6-bromo-chromen-2-one] | 131 | 11.8 | 11.10 |
| O=c1oc2ccccc2cc1CSc1nc2cc(Cl)c(Cl)cc2[nH]1 [Compound 4e, 3-(5,6-Dichloro-1H-benzoimidazol-2-ylsulfanylmethyl)-chromen-2-one] | 74.4 | 15.5 | 4.80 |
| COc1cccc2cc(CSc3nc4cnc(Cl)nc4[nH]3)c(=O)oc12 [Compound 16e, 3-(2-Chloro-9H-purin-8-ylsulfanylmethyl)-8-methoxy-chromen-2-one] | 94 | 19.6 | 4.80 |
| COc1cccc2cc(CSc3nc4cc(Cl)c(Cl)cc4n3C3OC(COC(C)=O)C(OC(C)=O)C(OC(C)=O)C3OC(C)=O)c(=O)oc12 (stereo not drawn) [Compound 7h, Acetic acid 3,4,5-triacetoxy-6-[5,6-dichloro-2-(8-methoxy-2-oxo-2H-chromen-3-ylmethylsulfanyl)-benzoimidazol-1-yl]-tetrahydro-pyran-2-ylmethyl ester] | 33.1 | 4.35 | 7.62 |
| CC(=O)OCC1OC(n2c(SCc3cc4ccccc4oc3=O)nc3ccccc32)C(OC(C)=O)C(OC(C)=O)C1OC(C)=O (stereo not drawn) [Compound 7a, Acetic acid 3,5-diacetoxy-2-acetoxymethyl-6-[2-(2-oxo-2H-chromen-3-ylmethylsulfanyl)-benzoimidazol-1-yl]-tetrahydro-pyran-4-yl ester] | 76.4 | 11.1 | 6.88 |
| CC(=O)OCC1OC(n2c(SCc3cc4ccccc4oc3=O)nc3cc(F)ccc32)C(OC(C)=O)C(OC(C)=O)C1OC(C)=O (stereo not drawn) [Compound 7c, Acetic acid 3,5-diacetoxy-2-acetoxymethyl-6-[5-fluoro-2-(2-oxo-2H-chromen-3-ylmethylsulfanyl)-benzoimidazol-1-yl]-tetrahydro-pyran-4-yl ester] | 43.1 | 3.88 | 11.1 |
| CC(=O)OCC1OC(n2c(SCc3cc4cc(Br)ccc4oc3=O)nc3ccccc32)C(OC(C)=O)C(OC(C)=O)C1OC(C)=O (stereo not drawn) [Compound 7e, Acetic acid 4,5-diacetoxy-2-acetoxymethyl-6-[2-(6-bromo-2-oxo-2H-chromen-3-ylmethylsulfanyl)-benzoimidazol-1-yl]-tetrahydro-pyran-3-yl ester] | 43.1 | 4.12 | 10.4 |
| COc1cccc2cc(CSc3nc4cc(F)ccc4[nH]3)c(=O)oc12 [Compound 4h, 3-(5-Fluoro-1H-benzoimidazol-2-ylsulfanylmethyl)-8-methoxy-chromen-2-one] | 41.9 | 15.9 | 2.63 |
| O=c1oc2ccc(Br)cc2cc1CSc1nc2cccnc2[nH]1 [Compound 16c, 3-(3H-Imidazo[4,5-b]pyridin-2-ylsulfanylmethyl)-6-bromo-chromen-2-one] | 128 | 6.8 | 18.82 |
| CC(=O)OCC1OC(n2c(SCc3cc4cc(Br)ccc4oc3=O)nc3cc(F)ccc32)C(OC(C)=O)C(OC(C)=O)C1OC(C)=O (stereo not drawn) [Compound 7f, Acetic acid 3,5-diacetoxy-2-acetoxymethyl-6-[2-(6-bromo-2-oxo-2H-chromen-3-ylmethylsulfanyl)-5-fluoro-benzoimidazol-1-yl]-tetrahydro-pyran-4-yl ester] | 21.9 | 3.33 | 6.59 |
| O=C(c1ccccc1)c1ccc2[nH]c(SCc3cc4ccccc4oc3=O)nc2c1 [Compound 4c, 3-(5-Benzoyl-1H-benzoimidazol-2-ylsulfanylmethyl)-chromen-2-one] | 36.8 | 6.61 | 5.58 |
| CC(=O)OCC1OC(n2c(SCc3cc4ccccc4oc3=O)nc3cc(Cl)c(Cl)cc32)C(OC(C)=O)C(OC(C)=O)C1OC(C)=O (stereo not drawn) [Compound 7d, Acetic acid 3,5-diacetoxy-2-acetoxymethyl-6-[5,6-dichloro-2-(2-oxo-2H-chromen-3-ylmethylsulfanyl)-benzoimidazol-1-yl]-tetrahydro-pyran-4-yl ester] | 19.8 | 3.14 | 6.33 |
| COc1cccc2cc(CSc3nc4cc(Cl)c(Cl)cc4[nH]3)c(=O)oc12 [Compound 4j, 3-(5,6-Dichloro-1H-benzoimidazol-2-ylsulfanylmethyl)-8-methoxy-chromen-2-one] | 11.1 | 3.58 | 3.12 |
| O=c1oc2ccccc2cc1CSc1nc2cnc(Cl)nc2[nH]1 [Compound 16d, 3-(2-Chloro-9H-purin-8-ylsulfanylmethyl)-chromen-2-one] | 109 | 2.03 | 53.69 |
| Cc1cc2nc(SCc3cc4ccccc4oc3=O)[nH]c2cc1C [Compound 4d, 3-(5,6-Dimethyl-1H-benzoimidazol-2-ylsulfanylmethyl)-chromen-2-one] | 66.6 | 15.2 | 4.37 |
| Cc1cccc2cc(CSc3nc4ccccc4[nH]3)c(=O)oc12 [Compound 4f, 3-(1H-benzoimidazol-2-ylsulfanylmethyl)-8-methyl-chromen-2-one] | 27.3 | 9.89 | 2.77 |
| O=c1oc2ccccc2cc1CSc1nc2ccccc2o1 [Compound 19a, 3-(Benzooxazol-2-ylsulfanylmethyl)-chromen-2-one] | 45.2 | 11.7 | 3.86 |
| O=c1oc2ccccc2cc1CSc1nc2cc(F)ccc2[nH]1 [Compound 4b, 3-(5-Fluoro-1H-benzoimidazol-2-ylsulfanylmethyl)-chromen-2-one] | 44.8 | 11.5 | 3.89 |
| O=c1oc2ccc(Br)cc2cc1CSc1nc2ccccc2[nH]1 [Compound 4g, 3-(1H-Benzoimidazol-2-ylsulfanylmethyl)-6-bromo-chromen-2-one] | 41.7 | 3.98 | 10.4 |
| O=c1oc2ccc(Br)cc2cc1CSc1nc2cc(Cl)c(Cl)cc2[nH]1 [Compound 4k, 6-Bromo-3-(5,6-dichloro-1H-benzoimidazol-2-ylsulfanylmethyl)-chromen-2-one] | 44.1 | 2.29 | 19.3 |
| O=c1oc2ccc(Br)cc2cc1CSc1nc2cc(F)ccc2[nH]1 [Compound 4i, 6-Bromo-3-(5-fluoro-1H-benzoimidazol-2-ylsulfanylmethyl)-chromen-2-one] | 26.7 | 3.36 | 7.96 |
| COc1cccc2cc(CSc3nc4cccnc4[nH]3)c(=O)oc12 [Compound 16b, 3-(3H-Imidazo[4,5-b]pyridin-2-ylsulfanylmethyl)-8-methoxy-chromen-2-one] | 30.3 | 10.9 | 2.78 |
| O=c1oc2ccccc2cc1CSc1nc2ccccc2[nH]1 [Compound 4a, 3-(1H-Benzoimidazol-2-ylsulfanylmethyl)-chromen-2-one] | 90.1 | 26.6 | 3.38 |
